From paper PMC6218115, “In Vitro Potency and Preclinical Pharmacokinetic Comparison of All-D-Enantiomeric Peptides Developed for the Treatment of Alzheimer’s Disease” (Journal of Alzheimer's Disease, 2018)
Non-standard residues stand in square brackets, D forms with d. Residues, ends and D or L forms follow the SMILES beside them.

Tests used:
[1] = Plasma protein binding, TRANSIL XL AGP binding kit; format: in vitro ADME, human; conditions: TRANSIL XL AGP beads 0.04-3 μM, 5 μM peptide (3H-labelled + non-labelled), LSC read-out, nonlinear regression
Experimental: (§1) Plasma protein binding (PPB) to human serum albumin (HSA) and α1-acid glycoprotein (AGP) of ANK6, tANK6, and cANK6r was analyzed according to the manufacturer’s protocol of TRANSIL^XL HSA and AGP binding kits (Sovicell GmbH, Germany). To cover a larger range of HSA and AGP concentrations, the bead concentrations in the kit were modified. For detection, a mixture of ^3H-labelled and non-labelled ANK6, tANK6, and cANK6r (final concentrations of 5μM) was added to different concentrations of HSA (7.4μM to 420μM, 10–12 different concentrations) or AGP beads (0.04μM to 3μM, 9–12 different concentrations). The amount of unbound ANK6, tANK6, and cANK6r (in %) to HSA or AGP, respectively, was determined by liquid scintillation counter (LSC) measurements. The dissociation constants (KD) as well as the free drug fractions (fu) in human plasma were calculated as described before. Calculations were based on peptide concentrations detected in the blood 4 h after single oral administration of 10 mg/kg: 0.01μM ANK6, 0.01μM tANK6, and 0.01μM cANK6r.

[2] = Free drug fraction (fu) in human plasma predicted from HSA and AGP affinities; format: in vitro ADME; conditions: predicted from affinities to HSA and AGP, at 0.01 μM peptide (blood level 4 h after oral administration)
Experimental: as §1

[3] = Pharmacokinetic concentration-time profiles and parameters after i.v. and p.o. administration; format: in vivo, C57Bl/6N mice; conditions: mice; for peptide concentration detected in the blood: 4 h after single oral administration of 10 mg/kg; for brain/plasma ratio: 24 h after administration; for Cmax, brain / Cmax, plasma: 3H-label LSC; for Cmax, plasma: 3 mice/time point; for AUC %ID,0 - 1440, plasma: non-compartmental analysis; for F (AUC %ID), oral bioavailability: p.o. 10 mg/kg (ANK6, tANK6) or 15 mg/kg (cANK6r) versus i.v. 3.3 mg/kg, plasma AUC %ID
Experimental: The pharmacokinetic profiles were investigated in 180 male C57Bl/6N mice aged 13-14 weeks, weighing about 27.4 g in average. Mice were ordered at Charles River (Germany) and housed at least one week under standard housing conditions (12/12 h light-dark cycle, approximately 22°C room temperature and 54% humidity; water and food available ad libitum) in the animal facility of the Forschungszentrum Jülich GmbH before the experiments were carried out. All animal experiments were approved by the Animal Protection Committee of the local government according to the German Protection of Animals Act (LANUV, North-Rhine-Westphalia, Germany, Az.84-02.04.2017.A029).
To determine the concentration-time profiles of ANK6, tANK6, and cANK6r in murine brain, plasma, liver, kidney, and cerebrospinal fluid (CSF) after i.v. and p.o. administration, mixed solutions of non-labelled and ^3H-labelled peptides were prepared. The administered solutions contained 1 mg/mL (i.v.) or 3 mg/mL (p.o.) of the respective D-peptide including small amounts of ^3H-labelled peptides (0.54μg/mL ^3H-ANK6, 1.79μg/mL ^3H-tANK6, or 0.98μg/mL ^3H-cANK6r). Doses were administered by body weight: i.v. 3.3 mg/kg, ANK6 & tANK6 p.o. 10 mg/kg, cANK6r p.o. 15 mg/kg. Three male C57Bl/6N mice aged 13-14 weeks were investigated per time point whereby individual outliers were excluded from further evaluation. Organs were harvested as follows: i.v. 5, 10, 30, 60, 120, 240, 360, 1080, 1440 min; p.o.: 10, 20, 30, 60, 120, 240, 360, 1080, 1440 min.
Animals whose CSF was not extracted were anesthetized with isoflurane (cp-pharma, Germany) inhalation approximately 2 min before each organ harvesting time point. Afterwards, blood was taken by cardiac puncture and the heparinized blood was centrifuged (3000 g, 5 min, 4°C) to get plasma. The plasma in the supernatant was separated and 1:1 diluted with PBS. The right brain hemisphere, 200 mg of the big liver lobe, and the right kidney were removed, weighed, and homogenized in 500μL PBS (Precellys Ceramic Kit 1.4 mm, Precellys 24, Bertin technologies SAS, France). 100μL of the diluted plasma, the homogenized brain, liver, or kidney (in triplicates), or 1–5μL (exactly determined) of the extracted CSF (extraction procedure see below, single determination) were mixed with 10 mL scintillation cocktail (Ultima Gold XR, PerkinElmer, USA). The mixture was incubated overnight (100 rpm, room temperature).
Animals whose CSF was extracted (organ harvesting time points: 60 min, 240 min, 1440 min) were i.p. anesthetized with ketamine/medetomidine approximately 20 min before each sampling time point. When the mouse was in deep narcosis, the cisterna magna was laid free and punctuated with a small capillary to extract about 5μL of CSF as described before. Afterwards, cardiac puncture, organ extractions, and sample preparations were performed as described above.
Quantification of the amount of ^3H-labelled D-peptides was performed with a LSC and the results (dpm/sample) were converted into mg/mL or % injected dose (% ID)/mL for plasma and for CSF, or in mg/g or % ID/g for brain, liver, and kidney as described before. Total peptide concentrations in the samples were back-calculated from the measured ^3H-labelled peptides’ radioactivity as described before [[20, 25, 26, 29]].
The determined peptide concentrations were plotted over time to allow for comparison of all peptides’ uptake into brain, plasma, liver, kidney, and CSF. Concentrations at 0 min were set to 0 % ID/mL or 0 % ID/g except for plasma concentrations after i.v. administration. There, concentrations were linearly back-extrapolated based on the first two measured time points (5 min, 10 min).
To calculate the pharmacokinetic parameters of ANK6, tANK6, and cANK6r for plasma and brain, concentration-time profiles were analyzed. […]

tg-APPSwDI mice = conditions: intraperitoneal treatment, 4 weeks; Klein et al.; cited from earlier work
[4] = target: human serum albumin (HSA) (Homo sapiens, UniProt P02768); assay: Plasma protein binding, TRANSIL XL HSA binding kit; format: in vitro ADME; conditions: TRANSIL XL HSA beads 7.4-420 μM, 5 μM peptide (3H-labelled + non-labelled), LSC read-out, nonlinear regression
Experimental: as §1

[5] = i.v. 3.3 mg/kg, back-extrapolated to 0 min
[6] = p.o. 10 mg/kg (ANK6, tANK6) or 15 mg/kg (cANK6r)

human serum albumin (HSA), sequence (P02768 25-609): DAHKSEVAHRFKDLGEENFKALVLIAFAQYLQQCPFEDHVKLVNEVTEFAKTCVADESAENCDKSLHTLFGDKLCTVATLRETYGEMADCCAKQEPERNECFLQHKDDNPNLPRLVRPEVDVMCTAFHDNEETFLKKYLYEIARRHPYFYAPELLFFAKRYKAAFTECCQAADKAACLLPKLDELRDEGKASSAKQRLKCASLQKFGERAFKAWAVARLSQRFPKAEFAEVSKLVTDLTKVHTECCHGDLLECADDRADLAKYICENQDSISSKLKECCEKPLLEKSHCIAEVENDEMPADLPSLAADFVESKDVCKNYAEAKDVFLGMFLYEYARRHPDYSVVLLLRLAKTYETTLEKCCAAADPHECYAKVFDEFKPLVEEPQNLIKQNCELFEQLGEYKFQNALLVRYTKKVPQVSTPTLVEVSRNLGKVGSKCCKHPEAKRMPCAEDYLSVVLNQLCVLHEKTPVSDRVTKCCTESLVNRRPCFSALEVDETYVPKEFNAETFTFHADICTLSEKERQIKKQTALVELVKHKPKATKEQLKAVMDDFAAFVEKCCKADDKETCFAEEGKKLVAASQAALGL

SMILES | Kd [1] | overall fu in plasma (fraction unbound) [2] | AUC %ID,0 - 1440, brain ([3]; i.v. 3.3 mg/kg) | CL, terminal plasma clearance ([3]; i.v. 3.3 mg/kg) | MRT, plasma ([3]; i.v. 3.3 mg/kg) | t1/2, terminal half-life, plasma ([3]; i.v. 3.3 mg/kg) | tmax, brain ([3]; i.v. 3.3 mg/kg) | tmax, plasma ([3]; i.v. 3.3 mg/kg) | λz, terminal elimination rate constant, plasma ([3]; i.v. 3.3 mg/kg) | Cmax, brain ([3]; i.v. 3.3 mg/kg) | Cmax, plasma [3, 5] | AUC %ID,0 - 1440, plasma ([3]; i.v. 3.3 mg/kg) | AUC %ID,0 - 1440, brain [3, 6] | CL, terminal plasma clearance [3, 6] | MRT, plasma [3, 6] | t1/2, terminal half-life, plasma [3, 6] | tmax, brain [3, 6] | tmax, plasma [3, 6] | λz, terminal elimination rate constant, plasma [3, 6] | F (AUC %ID), oral bioavailability [3] | further results
CC[C@@H](C)[C@@H](NC(=O)[C@@H](CCCNC(=N)N)NC(=O)[C@@H](CCCCN)NC(=O)[C@H](N)CCCNC(=N)N)C(=O)N[C@H](CCCNC(=N)N)C(=O)N[C@H](CC(C)C)C(=O)N[C@@H](C(=O)N[C@@H](C(=O)N[C@H](CCCCN)C(=O)N[C@H](CCCCN)C(=O)N[C@H](CCCCN)C(=O)N[C@H](CCCNC(=N)N)C(=O)N[C@H](CCCNC(=N)N)C(=O)N[C@H](CCCCN)C(=O)N[C@H](CCCNC(=N)N)C(=O)N[C@@H](C(=O)N[C@H](CCCNC(=N)N)C(=O)N[C@H](CC(C)C)C(=O)N[C@@H](C(=O)N[C@@H](C(=O)N[C@H](CCCCN)C(=O)N[C@H](CCCCN)C(=O)N[C@H](CCCCN)C(=O)N[C@H](CCCNC(=N)N)C(N)=O)[C@H](C)O)C(C)C)[C@H](C)CC)[C@H](C)O)C(C)C [tANK6] (H-[dR][dK][dR][dI][dR][dL][dV][dT][dK][dK][dK][dR][dR][dK][dR][dI][dR][dL][dV][dT][dK][dK][dK][dR]-NH2; N-terminus assumed) | 60 nM | 0.29% | 56.6 min*% ID/g | 88.9 mL/min/kg | 7 h | 18 h | 0.5 h | 0 h | 0.00063 min⁻¹ | 0.06 % ID/g | 0.40 % ID/mL | 26.1 min*% ID/mL | 22.5 min*% ID/g | 113.0 mL/min/kg | 11 h | 31 h | 18 h | 4 h | 0.00038 min⁻¹ | 49.4% | peptide concentration detected in the blood [3]: 0.01 µM; brain/plasma ratio ([3]; i.v.): 6.89; Cmax, brain [3, 6]: 0.02 % ID/g; Cmax, plasma [3, 6]: 0.02 % ID/mL; AUC %ID,0 - 1440, plasma [3, 6]: 12.9 min*% ID/mL
CC[C@@H](C)[C@@H](NC(=O)[C@@H](CCCNC(=N)N)NC(=O)[C@@H](CCCCN)NC(=O)[C@H](N)CCCNC(=N)N)C(=O)N[C@H](CCCNC(=N)N)C(=O)N[C@H](CC(C)C)C(=O)N[C@@H](C(=O)N[C@@H](C(=O)N[C@H](CCCCN)C(=O)N[C@H](CCCCN)C(=O)N[C@H](CCCCN)C(=O)N[C@H](CCCNC(=N)N)C(N)=O)[C@H](C)O)C(C)C [ANK6] (H-[dR][dK][dR][dI][dR][dL][dV][dT][dK][dK][dK][dR]-NH2; N-terminus assumed) | 290 nM | 1.43% | 35.8 min*% ID/g | 32.0 mL/min/kg | 3 h | 15 h | 0.083 h | 0 h | 0.00077 min⁻¹ | 0.07 % ID/g | 3.17 % ID/mL | 91.7 min*% ID/mL | 11.0 min*% ID/g | 174.5 mL/min/kg | 10 h | 22 h | 1 h | 2 h | 0.00054 min⁻¹ | 11.8% | memory performance of tg-APPSwDI mice (tg-APPSwDI mice): a non-significant tendency for improving memory performance; peptide concentration detected in the blood [3]: 0.01 µM; CSF levels ([3]; about 60 min after both types of administration (i.v., p.o.)): Extraordinary high CSF levels; Cmax, brain [3, 6]: 0.01 % ID/g; Cmax, plasma [3, 6]: 0.02 % ID/mL; AUC %ID,0 - 1440, plasma [3, 6]: 10.8 min*% ID/mL; KD to HSA [4]: not analyzable
CC[C@@H](C)[C@H]1NC(=O)[C@@H](CCCNC(=N)N)NC(=O)[C@@H](CCCCN)NC(=O)[C@@H](CCCNC(=N)N)NC(=O)[C@@H](CCCNC(=N)N)NC(=O)[C@@H](CCCNC(=N)N)NC(=O)[C@@H](CCCCN)NC(=O)[C@@H](CCCCN)NC(=O)[C@@H](CCCCN)NC(=O)[C@@H]([C@H](C)O)NC(=O)[C@@H](C(C)C)NC(=O)[C@@H](CC(C)C)NC(=O)[C@@H](CCCNC(=N)N)NC1=O [cANK6r] (cyclo([dR][dK][dR][dI][dR][dL][dV][dT][dK][dK][dK][dR][dR])) | 280 nM | 1.36% | 85.6 min*% ID/g | 18.4 mL/min/kg | 2 h | 18 h | 0.083 h | 0 h | 0.00064 min⁻¹ | 0.12 % ID/g | 3.29 % ID/mL | 181.0 min*% ID/mL | 19.1 min*% ID/g | 135.5 mL/min/kg | 9 h | 30 h | 6 h | 1 h | 0.00039 min⁻¹ | 9.9% | brain/plasma ratio ([3]; p.o.): 1.17; Cmax, brain [3, 6]: 0.02 % ID/g; Cmax, plasma [3, 6]: 0.05 % ID/mL; AUC %ID,0 - 1440, plasma [3, 6]: 17.9 min*% ID/mL
